Experiments:
[1] = tested on: CD24^−/CD44^+‐breast CSC population sorted from MDA‐MB‐231; assay: MTT assay in sorted breast CSC population; type: cell-based, human; conditions: doxorubicin 0.01 μM + 1e 5 μM vs doxorubicin 0.01 μM alone
Protocol: To evaluate the cytotoxicity profile of the potential EGFR inhibitors (compounds) against TNBC cell lines—MDA‐MB‐231, MDA‐MB‐468, and control cell line HEK293, cells were seeded at a cell density of 5 × 10^3 cells/well in complete medium onto 96‐well plates. Here, the non‐tumoral human embryonic kidney (HEK293) epithelial cells have been utilized as a control cell line to compare the IC50 values of the compounds between cancerous and non‐cancerous cell lines with a big therapeutic window. The use of HEK293 cells as compared to other non‐cancerous cell lines are easy to maintain in culture and the results obtained from HEK293 are highly reproducible and consistent.[27] Briefly, the cells were incubated at 37°C for 12 h to attain morphology. After 12 h, cells were serum starved by replacing the complete media with media containing 2% FBS to synchronize the cells. […] All the experiments were performed thrice and the IC50 values of the compounds and Doxorubicin were calculated using GraphPad Prism software version 9 (San Diego, CA, USA). Similarly, the percent inhibition of the sorted cell populations by chemotherapeutic drug, doxorubicin in the absence/presence of potent compound 1e or standard EGFR inhibitor, PD153035 was evaluated utilizing GraphPad Prism Version 9 (San Diego, CA, USA).

[2] = tested on: CD44, p‐EGFR, p‐JNK, p‐p38 in tumor tissue; assay: Immunohistochemical analysis of tumor tissue (colocalization with GFP, Pearson's correlation coefficient); type: in vivo, C57BL/6 mice
Protocol: (§1) Animal studies have been carried out with the prior approval of the Institutional Animal Ethics Committee (IICT/IAEC/025/2023). C57BL/6 female mice of age 6–8 weeks (N = 35) were initially immunosuppressed with cyclophosphamide (50 mg/kg of body weight, i.p) on alternate days for 2 weeks. For generating a preclinical orthotopic xenograft tumor model, 2 × 10^6 GFP expressing sorted stable CD24^+‐breast cancer cells and CD24^−/CD44^+‐breast CSCs were orthotopically xeno‐transplanted subcutaneously at the fourth mammary fat pad of immune‐suppressed mice (n = 5/group). Subsequently, intratumoral administration of Doxorubicin at a low dose (2.5 mg/kg of body weight), high dose (10 mg/kg of body weight), and/or combinatorial treatment of the potent EGFR inhibitor, compound 1e (50 mg/kg of body weight) or the commercial EGFR inhibitor, PD153035 (50 mg/kg of body weight) with a low dose of doxorubicin was performed to the palpable tumors of breast CSCs at day‐3 post‐transplantation.
Immunohistochemical analysis was performed by immunostaining the tissue serial sections with primary antibodies against GFP, CD44, p‐EGFR, p‐JNK, and p‐p38 (CST, USA) followed by alexafluor‐488/555 conjugated secondary antibodies (R&D systems, USA) and mounting medium containing DAPI.[28], [29] Images were captured using a confocal microscope (Olympus FV10i, Tokyo, Japan). Pearson's correlation coefficient was utilized to determine the co‐localization of GFP/CD44, GFP/p‐EGFR, GFP/p‐JNK, and GFP/p‐p38 (Table. ST3).

[3] = tested on: CD24^−/CD44^+‐breast CSCs xenotransplanted tumors; assay: Preclinical orthotopic xenograft murine tumor model (tumor size, weight, H&E histology); type: in vivo, C57BL/6 mice
Protocol: as §1
Euthanization of mice was performed on day 14 post‐transplantation and tumor tissues were collected for histological and immunohistochemical analysis. Histological differences in tumor tissues were evaluated using hematoxylin and eosin staining (H&E).[28], [30]

Compound: c1cncc(C(c2c[nH]c3ccccc23)c2c[nH]c3ccccc23)c1 [1e]
- increase of percent inhibition of cell proliferation versus doxorubicin alone [1]: 6.1 folds
- colocalization of GFP/p‐EGFR ([2]; with doxorubicin low dose, CSC xenograft tumor tissue): decreased significantly
- activation of apoptotic signaling mediators (GFP/p‐JNK, GFP/p‐p38 colocalization) ([2]; with low dose doxorubicin, comparable with high dose doxorubicin alone): increased activation
- colocalization of GFP and CD44 (Pearson's correlation coefficient) ([2]; with low dose of doxorubicin, CSC xenograft tumor tissue): comparable to the high dose of doxorubicin treated group
- tumorigenicity (H&E histology) ([3]; 50 mg/kg + low dose doxorubicin 2.5 mg/kg, CSC xenograft): significant decrease
- histopathological finding in tumor tissue ([3]; 50 mg/kg + low dose doxorubicin 2.5 mg/kg, CSC xenograft, day 14): no tumor mass
- tumor size ([3]; intratumoral, 50 mg/kg + doxorubicin low dose 2.5 mg/kg vs low dose doxorubicin alone, CD24^−/CD44^+ CSC xenograft): significantly decreased

— paper PMC10961089, “Epidermal growth factor receptor inhibition potentiates chemotherapeutics‐mediated sensitization of metastatic breast cancer stem cells” (Cancer Reports, 2024)
